# From patent US20260306525A1, “COMBINATION THERAPY GLUCOCORTICOIDS AND GINSENOSIDE” (FYTAGORAS B.V., priority 2023, published 2026)
# Test system: mmp9
# Assay: qPCR mmp9 expression in zebrafish larvae
# Assay type: in vivo, zebrafish (Danio rerio)
# Settings: Example 2, wounded larvae
# Procedure: To determine mRNA levels of specific genes in zebrafish, 3 dpf larvae were used (wounded and non-wounded) and after 6 h of chemical treatments (2 h pre-wounding, 4 h post-wounding), as indicated. Per sample, groups of 15 larvae were collected in TRIzol reagent (Thermo Fisher Scientific, Waltham, MA, USA), and total RNA was isolated using the miRNeasy mini kit (Qiagen, Hilden, Germany). For similar experiments in Hela cells, cells were seeded in 6 well plates, and after 6 h of chemical treatment, the cells were removed from the wells using TRIzol reagent, and total RNA was isolated using the miRNeasy mini kit according to the manufacturer's instructions. The RNA samples were DNAse-treated utilizing the DNA-free™ DNA Removal Kit (Thermo Fisher Scientific). The cDNA synthesis was performed using the iScript cDNA synthesis kit (Bio-Rad Laboratories, Hercules, CA, USA) using 1 μg of RNA per sample. For the PCR reactions, 10 μM of forward and 10 μM of reverse primer, 12.5 μl of iQ SYBR Green Supermix (Bio-Rad), and 2 μl of cDNA were added to the qPCR reaction mixture. […] Cycle threshold values (Ct values, i.e. the cycle numbers at which a threshold value of the fluorescence intensity was reached) were determined for each sample. […] The fold change per sample (compared to the respective control group) was calculated using the ΔΔCt method.
smiles,measurement,value
"C[C@H]1C[C@H]2[C@@H]3CCC4=CC(=O)C=C[C@]4(C)[C@@]3(Cl)[C@@H](O)C[C@]2(C)[C@@]1(O)C(=O)CO [beclomethasone, reference compound]",mmp9 expression,"suppressed the expression levels of il1b, il6 and mmp9, similarly to Bec"
